What was measured:
[1] = target: angiotensin II binding to rat adrenal receptor preparations; experiment: inhibition of 125I-angiotensin II binding to rat adrenal receptor preparations
[2] = tested on: 2 kidney, 1-clip Goldblatt hypertensive rat (RHR); experiment: blood pressure lowering in conscious 2 kidney, 1-clip Goldblatt (renal) hypertensive rats (RHR), AHP3; format: in vivo; conditions: 30 mg/kg ip, read-out: Max % decrease in blood pressure, 30 mg/kg ip in RHR
Procedure: Thus, for example, compounds of formula I when administered intraperitoneally or orally to 2 kidney, 1-clip Goldblatt (renal) hypertensive rats (See S Sen, et al., "Role of Renin-Angiotensin System in Chronic Renal Hypertensive Rats," Hypertension 1:427-434 (1979) and Clin. Soc. 57:53-62, 1979, "Antihypertensive Effect of Prolonged Blockade of Angiotensin Formation in Benign and Malignant, one-and two-kidney Goldblatt Hypertensive Rats".) at doses in the range of 1-100 mg/kg cause 10-80 mmHg drops in blood pressure. […] Angiotensin binding inhibition activity and blood pressure lowering activity in renal hypertensive rats of the optimally substituted examples of formula I are listed in Table 1. Blood pressure lowering activity in spontaneously hypertensive rats of optimally substituted examples of formula II are listed in Table 2.
[…] EVALUATION (AHP3)
A Method for the Direct Monitoring of Aortic Blood Pressure and Heart Rate from Conscious Rats
The continuous monitoring of pulsatile blood pressure (BP) from unrestrained conscious rats surgically equipped with polyethylene cannulas was accomplished by means of a computer assisted data capture scheme (CADCS). The basic elements of the methodology are the cannulation procedure and the CADCS.
Rats were anesthetized with Telazol (1:1 tiletamine HCl and zolazepam HCl); 20-40 mg/kg IM and the descending aorta exposed via a midline incision. Cannulas fabricated from polyethylene tubing were inserted into the aorta via an undersized puncture hole below the renal arteries. The puncture hole was made by a 23 G disposable needle with a section of the aorta clamped off above and below the puncture site. The cannulas, consisting of a PE100 (0.86 mm ID) body and a PE50 (0.58 mm ID) tip, were attached to a trocar, inserted through the psoas muscle, and passed subcutaneously along the midline of the back and externalized between the ears. The cannulas were anchored to the psoas muscle and between the scalulae (3-0 green braided suture). The midline incision was closed in two steps (muscle first, skin second) using continuous over-and-over sutures (4-0 chronic). Each rat was then given penicillin 30,000 units subcutaneously (Penicillin G Procaine Sterile Suspension).
The rats were fitted with a harness-springswivel assembly designed to protect the cannula and to provide the rat relative freedom of movement. The harnesses were fabricated from nylon hook and loop tape cemented to a metal plate to which spring wires (18-8 stainless steel), were attached to brass swivels. Each polyethylene cannula was channeled through a spring and connected through a swivel to a pressure transducer (Model P23Gb; Statham Instruments; Hato Rey, Puerto Rico) and an infusion pump (Sage model 234-7; Orion Research, Cambridge, Mass.) by means of PE100 tubing. While on test, each rat received a continuous slow infusion of heparinized saline solution (approximately 0.40 ml or 40 units of heparin per 24 hr period) to prevent clot formation. Additional "flushes" of the cannula with heparinized saline were carried out when the aortic pulse pressure (systolic minus diastolic) was less than 25 mm Hg.
The pulsatile blood pressure of each of 32 rats was monitored continuously by two signal conditioning units (Gould, Clev., Ohio). The signals from these units were monitored and digital data for mean, systolic, and diastolic blood pressures as well as for heart rate were calculated every 5 min by two in-laboratory computers (Hewlett Packard, Cupertino, Calif.). These in-laboratory computers have the capacity to store 32 days of this 5 min data. Communication with the mainframe research computer (IBM 3083) from the two inlaboratory computers allowed for data analysis and report generation. […]

Compound: COc1ccc(Cn2cnc3c2C[C@@H](C(=O)O)N(C(=O)CC2CCCCC2)C3)cc1C [Example 26, (S)-5-(cyclohexylacetyl)-4,5,6,7-tetrahydro-1-[(4-methoxy-3-methylphenyl)methyl]-1H-imidazo-[4,5-c]-pyridine-6-carboxylic acid]
- IC50 [1]: 2 µM
- change in vivo at 30 mg/kg [2]: -18%

Compound: Cc1cccc(Cn2cnc3c2C[C@@H](C(=O)O)N(C(=O)C(c2ccccc2)c2ccccc2)C3)c1 [Example 75, 1H-Imidazo[4,5-c]pyridine-6-carboxylic acid, 5-(diphenylacetyl)-4,5,6,7-tetrahydro-1-[(3-methylphenyl)methyl]-, (S)-]
- IC50 [1]: 0.27 µM
- change in vivo at 30 mg/kg [2]: -30%

Compound: O=C(O)C1Cc2c(ncn2Cc2ccccc2)CN1C(=O)C(c1ccccc1)c1ccccc1 (stereo not drawn) [Example 169, 5-(Diphenylacetyl)-4,5,6,7-tetrahydro-1-(phenylmethyl)-1H-imidazo[4,5-c]pyridine-6-carboxylic acid]
- IC50 [1]: 1 µM
- change in vivo at 30 mg/kg [2]: -20%

— patent US4812462A, “4,5,6,7-tetrahydro-1H-imidazo[4,5-c]pyridine-6-carboxylic acid analogs having antihypertensive activity” (Warner-Lambert Company, priority 1986, dated 1989)
